Laboratory results from US20070088052A1, “Sulfonamide derivatives as 5ht7 receptor antagonists” (Aston University, priority 2003, published 2007).
Marks after values point to notes of the source that are not given here.

What was measured:
5-HT7 receptor = target: T1, 5-HT7 receptor (Homo sapiens, UniProt P34969); experiment: Receptor binding assay, [3]H-5-CT; details: for 5HT-7 receptor binding data using [3]H-5-CT: stepwise screen from 10 μM, active samples diluted and re-screened, radioligand 25 pM, dropout < 35; for IC50: [3]H-5-CT binding
T1 construct: Tissues were homogenized in ice cold sucrose; from tissue; host or cells: unspecified tissue, membrane homogenate
Method: Receptor Binding Assay, ^[3]H-5-CT
The combinatorial library was screened using radiolabeled 5-carboxamidotryptamine, a selective 5-HT-7 agonist. Tissues were homogenized in ice cold sucrose (0.32 M, 25 ml) for 15 strokes at 500 rpm and centrifuged at 13000 rpm for 10 mins. The supernatant was re-centrifuged at 13000 rpm for 20 mins. The resulting pellet was re-dispersed to the required volume of buffer at 500 rpm and stored in aliquots at […].
Binding was achieved using radioligand 5-carboxamidotryptamine at 25 pM. The samples were incubated {with membranes (0.1 mg/ml)} in 20 mM Hepes, 1 mM EGTA, 5 mM MgCl2, 150 mM NaCl, at pH 6.5 for 2 hrs at RT and then centrifuged at 11000 rpm for 5 minutes. The membrane pellets were washed twice with water and the bound radioactivity was measured in a Packard Cobra Auto-gamma counter (B5005). All binding assays were carried out with SB-258719 as standard. Controls (no compound) were also added. All samples were made in duplicate and repeated twice. All compounds were initially screened for percentage inhibition at 10 μM. Samples showing an average inhibition of […] were diluted to 1 μM and re-screened and if active diluted again.

mice [1] = experiment: Despair swim test (immobility time test); assay type: in vivo; details: immobility in 5 min test, drug one hour prior
Text: Despair Swim Test (Immobility Time Test)
This reflects a state of despair, which can be reduced by several agents, which are therapeutically effective in human depression. Antidepressant drugs have the effect of reducing the duration of immobility.
Mice were brought into the laboratory at least one day before the experiment and were housed in separate cages, with free access to food and water. The mice were individually forced to swim inside a vertical Plexiglas cylinder (height: 40 cm; diameter: 18 cm, containing 15 cm of water maintained at 30° C.). After 10 min in the water the mice were removed and allowed to dry in a heated enclosure (32° C.) before being returned to their home cages. They were again replaced in the cylinder 24 hrs later and the total duration of the immobility was measured during a 5 min test. Floating behaviour during this 5 min period was reproducible in different groups of mice. An animal was judged to be immobile whenever it remained floating passively in the water in a slightly hunched but upright position, its nose just above the surface. The test drug or the standard were administered one hour prior to testing.

mice [2] = experiment: Tail suspension test; assay type: in vivo; details: interperitoneal 30 min prior, immobility over 5 minutes
Method: Male mice weighting 20-25 g were used preferentially. The were housed in plastic cages for at least 10 days prior to testing in a 12 hours light cycle with food and water freely available.
Animals were transported from the housing room to the testing area in their own cages and were allowed to adapt to the new environment for 1 hour before testing. Groups of 6 animals were treated with the test compounds or the vehicle by interperitoneal injection 30 min prior to testing. For the test the mice were suspended on the edge of a shelf 58 cm above a table top by adhesive tape, placed approximately 1 cm from the tip of the tail. The duration of immobility was recorded for a period of 5 minutes. Mice were considered immobile when they hang passively and the time was recorded.

T1 sequence (P34969 whole entry): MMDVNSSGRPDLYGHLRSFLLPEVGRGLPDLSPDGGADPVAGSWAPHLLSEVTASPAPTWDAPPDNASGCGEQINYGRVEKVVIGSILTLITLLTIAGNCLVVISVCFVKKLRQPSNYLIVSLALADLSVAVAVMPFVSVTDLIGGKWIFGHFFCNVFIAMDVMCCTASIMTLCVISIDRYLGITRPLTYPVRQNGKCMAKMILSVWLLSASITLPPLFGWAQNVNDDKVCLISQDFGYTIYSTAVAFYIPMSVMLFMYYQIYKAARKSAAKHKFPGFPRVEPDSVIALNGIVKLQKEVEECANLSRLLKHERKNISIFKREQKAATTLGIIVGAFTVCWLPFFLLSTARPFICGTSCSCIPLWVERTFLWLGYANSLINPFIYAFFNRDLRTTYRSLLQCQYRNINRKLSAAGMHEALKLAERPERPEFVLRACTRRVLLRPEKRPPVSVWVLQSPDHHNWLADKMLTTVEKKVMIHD

| Compound | 5HT-7 receptor binding data using [3]H-5-CT (5-HT7 receptor) | other results |
| --- | --- | --- |
| CC1CCN(CCC(C)N(CCN(C)C)S(=O)(=O)c2ccc(Br)cc2)CC1 (centres unmarked) [M9] | M9 * (1 micromolar) | – |
| CC1CCN(CCC(C)N(c2cccc3ccccc23)S(=O)(=O)Cc2ccccc2)CC1 (centres unmarked) [G24] | G24 * (1 micromolar) | – |
| CC1CCN(CCC(C)N(c2ccccn2)S(=O)(=O)c2cccc3ccccc23)CC1 (centres unmarked) [D13] | D13 ** (100 nM) | – |
| COCCN(C(C)CCN1CCC(C)CC1)S(=O)(=O)c1cccc(C(F)(F)F)c1 (centres unmarked) [N3] | N3 ** (100 nM) | – |
| COc1cccc(N(C(C)CCN2CCC(C)CC2)S(=O)(=O)c2cccc([N+](=O)[O-])c2)c1 (centres unmarked) [I23] | I23 ** (100 nM) | – |
| COc1cccc(N(C(C)CCN2CCC(C)CC2)S(=O)(=O)c2ccc(-c3ccccc3)cc2)c1 (centres unmarked) [J23] | J23 *** (10 nM) | IC50 (5-HT7 receptor): 39 nM |
| CC1CCN(CCC(C)N(C)S(=O)(=O)c2cccc([N+](=O)[O-])c2)CC1 (centres unmarked) [I8] | I8 ** (100 nM) | – |
| COc1cccc(N(C(C)CCN2CCC(C)CC2)S(=O)(=O)c2cccc(C)c2)c1 (centres unmarked) [B23] | B23 *** (10 nM) | – |
| CCCCCCCCCCCCN(C(C)CCN1CCC(C)CC1)S(=O)(=O)Cc1ccccc1 (centres unmarked) [G10] | G10 * (1 micromolar) | – |
| COc1ccc(S(=O)(=O)N(c2cccc3ccccc23)C(C)CCN2CCC(C)CC2)cc1OC (centres unmarked) [O24] | O24 *** (10 nM) | IC50 (5-HT7 receptor): 83 nM; Forced swim test (mice [1]; 1 mg/kg): 69 ± 7 s; Forced swim test (mice [1]; 5 mg/kg): 51 ± 11 s; Tail suspension (mice [2]; 1 mg/kg): 81 ± 8 s; Tail suspension (mice [2]; 5 mg/kg): 74 ± 9 s |
| CC1CCN(CCC(C)N(Cc2ccccc2)S(=O)(=O)c2cccc([N+](=O)[O-])c2)CC1 (centres unmarked) [I1] | I1 ** (100 nM) | – |
| COc1ccc(S(=O)(=O)N(c2cccc3ccccc23)C(C)CCN2CCC(C)CC2)cc1 (centres unmarked) [C24] | C24 * (1 micromolar) | – |
| COc1ccc(S(=O)(=O)N(c2ccc(Cl)cc2)C(C)CCN2CCC(C)CC2)cc1 (centres unmarked) [C6] | C6 ** (100 nM) | – |
| CC1CCN(CCC(C)N(c2ccccc2)S(=O)(=O)c2cccc([N+](=O)[O-])c2)CC1 (centres unmarked) [I21] | I21 ** (100 nM) | – |
| CC(=O)c1ccc(N(C(C)CCN2CCC(C)CC2)S(=O)(=O)Cc2ccccc2)cc1 (centres unmarked) [G22] | G22 * (1 micromolar) | – |
| COc1cccc(N(C(C)CCN2CCC(C)CC2)S(=O)(=O)Cc2ccccc2)c1 (centres unmarked) [G23] | G23 *** (10 nM) | – |
| CC1CCN(CCC(C)N(Cc2ccccc2)S(=O)(=O)c2cccc3ccccc23)CC1 (centres unmarked) [D1] | D1 * (1 micromolar) | – |
| COc1ccccc1N(C(C)CCN1CCC(C)CC1)S(=O)(=O)c1cccc(C)c1 (centres unmarked) [B16] | B16 ** (100 nM) | – |
| COc1ccccc1N(C(C)CCN1CCC(C)CC1)S(=O)(=O)c1cccc(C(F)(F)F)c1 (centres unmarked) [N16] | N16 ** (100 nM) | – |
| CC1CCN(CCC(C)N(Cc2ccccc2)S(=O)(=O)c2ccc3ccccc3c2)CC1 (centres unmarked) [E1] | E1 * (1 micromolar) | – |
| Cc1cccc(S(=O)(=O)N(CCN(C)C)C(C)CCN2CCC(C)CC2)c1 (centres unmarked) [B9] | B9 * (1 micromolar) | – |
| Cc1ccc(N(C(C)CCN2CCC(C)CC2)S(=O)(=O)c2ccc(-c3ccccc3)cc2)cc1 (centres unmarked) [J20] | J20 *** (10 nM) | IC50 (5-HT7 receptor): 61 nM; Forced swim test (mice [1]; 1 mg/kg): 42 ± 6 s; Forced swim test (mice [1]; 5 mg/kg): 28 ± 4 s; Tail suspension (mice [2]; 1 mg/kg): 130 ± 11 s; Tail suspension (mice [2]; 5 mg/kg): 92 ± 9 s |
| COCCN(C(C)CCN1CCC(C)CC1)S(=O)(=O)c1ccc2ccccc2c1 (centres unmarked) [E3] | E3 * (1 micromolar) | – |
| CC1CCN(CCC(C)N(c2cccc3ccccc23)S(=O)(=O)c2cccc([N+](=O)[O-])c2)CC1 (centres unmarked) [I24] | I24 *** (10 nM) | – |
| Cc1ccc(N(C(C)CCN2CCC(C)CC2)S(=O)(=O)c2cccc(C(F)(F)F)c2)cc1 (centres unmarked) [N20] | N20 ** (100 nM) | – |
| COc1cccc(N(C(C)CCN2CCC(C)CC2)S(=O)(=O)c2cccc3ccccc23)c1 (centres unmarked) [D23] | D23 *** (10 nM) | IC50 (5-HT7 receptor): 34 nM |
